One data set addresses T1, ERCC1-XPF (Homo sapiens, UniProt Q92889).
T1 construct: His6; made in house; host or cells: E. coli BL21 (DE3)
T1 sequence (Q92889 1-916): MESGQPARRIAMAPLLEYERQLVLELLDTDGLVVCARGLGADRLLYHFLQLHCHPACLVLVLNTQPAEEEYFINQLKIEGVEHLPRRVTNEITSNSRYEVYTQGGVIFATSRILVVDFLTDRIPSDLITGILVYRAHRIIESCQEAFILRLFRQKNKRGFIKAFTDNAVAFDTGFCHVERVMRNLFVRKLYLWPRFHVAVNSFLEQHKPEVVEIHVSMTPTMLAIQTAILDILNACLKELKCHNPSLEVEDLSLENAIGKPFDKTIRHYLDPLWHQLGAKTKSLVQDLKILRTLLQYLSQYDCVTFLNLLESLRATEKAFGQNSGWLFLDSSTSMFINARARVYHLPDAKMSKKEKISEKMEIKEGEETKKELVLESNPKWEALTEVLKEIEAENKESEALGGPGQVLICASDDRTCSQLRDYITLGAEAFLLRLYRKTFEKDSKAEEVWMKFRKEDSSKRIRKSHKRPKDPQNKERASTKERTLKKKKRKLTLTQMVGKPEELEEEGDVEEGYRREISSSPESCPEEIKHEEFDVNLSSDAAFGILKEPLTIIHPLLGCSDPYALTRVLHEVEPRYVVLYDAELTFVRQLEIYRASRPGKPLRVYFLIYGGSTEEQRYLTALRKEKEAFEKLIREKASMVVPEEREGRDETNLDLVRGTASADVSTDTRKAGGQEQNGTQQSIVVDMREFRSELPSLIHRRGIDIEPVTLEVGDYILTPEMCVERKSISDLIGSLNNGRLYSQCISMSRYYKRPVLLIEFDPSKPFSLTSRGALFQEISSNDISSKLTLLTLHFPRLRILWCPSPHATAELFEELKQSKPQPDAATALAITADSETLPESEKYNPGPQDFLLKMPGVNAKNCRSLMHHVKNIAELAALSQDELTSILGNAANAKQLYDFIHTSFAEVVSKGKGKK
Put plainly: Microplate fluorescence incision assay of ERCC1-XPF endonuclease activity. The class given is biochemical. The note with it: for inhibition of ERCC1-XPF endonuclease activity (in words): compounds 10 μM each.

Another data set addresses T2, ERCC1-XPF complex (Homo sapiens, UniProt Q92889).
T2 construct: His6; made in house; host or cells: E. coli BL21 (DE3)
T2 sequence (Q92889 1-916): T1 sequence (Q92889 1-916)
Put plainly: Steady-state intrinsic tryptophan fluorescence quenching binding assay. The note with it: 2 μM compound; excitation 295 nm. The method, then: Steady-state fluorescence spectra were measured at room temperature on a Perkin-Elmer LS-55 spectrofluorometer (Freemont, Calif.) with 5 nm spectral resolution for excitation and emission using 30-80 nM solution of purified recombinant ERCC1-XPF protein complex. […] In studying the effects of inhibitors on protein fluorescence intensities, additions to protein samples were made from inhibitors stock solutions, keeping the protein dilution below 3%.

The subject of another data set is HCT116 cells. The data set can be described thus: Clonogenic survival assay, cyclophosphamide treatment. It counts as cell-based, human. The note with it: cyclophosphamide 0-300 μM, compound 1-4 μM. The method, then:
Plates were incubated for another 8 days at 37° C. in a 5% CO2 atmosphere for colony formation. After this period plates were stained with crystal violet, colonies were counted, and plating efficiency and surviving fraction were calculated.

Data set [1] can be described thus: Hepatocyte stability in vitro. It counts as in vitro ADME. The conditions noted are these: Table 8.
A further data set in a line: ADME screening: LogD. The conditions noted are these: Table 8.
Another data set deals with CYP2D6 (Homo sapiens, UniProt P10635). Put plainly: CYP450 inhibition, CYP2D6.
For another data set, the target named is CYP3A4-M (Homo sapiens, UniProt P08684). Put plainly: CYP450 inhibition, CYP3A4-M.
The nature of data set [2]: ADME screening: cell permeability and efflux ratio. The note with it: Table 8.
Data set [3] deals with five CYP450 enzymes (CYP1A2, CYP2C9, CYP2C19, CYP2D6, CYP3A4-M). Put plainly: ADME screening: CYP inhibition (five CYP450 enzymes). The conditions noted are these: human.
Data set [4] has as its system five CYP450 tested enzymes. The description is as above. The conditions noted are these: Table 8.

Entries after “also recorded” stand apart in the source; their conditions may differ.

By logD is commonly meant lipophilicity at a set pH, counting ionised and neutral species. A lower logD goes with a more hydrophilic compound. Usually IC50 stands for the point on the concentration scale where inhibition reaches its midpoint. The low end stands for greater potency in that assay, the high end for weaker potency in that assay.

Chain of CYP3A4-M (P08684 whole entry): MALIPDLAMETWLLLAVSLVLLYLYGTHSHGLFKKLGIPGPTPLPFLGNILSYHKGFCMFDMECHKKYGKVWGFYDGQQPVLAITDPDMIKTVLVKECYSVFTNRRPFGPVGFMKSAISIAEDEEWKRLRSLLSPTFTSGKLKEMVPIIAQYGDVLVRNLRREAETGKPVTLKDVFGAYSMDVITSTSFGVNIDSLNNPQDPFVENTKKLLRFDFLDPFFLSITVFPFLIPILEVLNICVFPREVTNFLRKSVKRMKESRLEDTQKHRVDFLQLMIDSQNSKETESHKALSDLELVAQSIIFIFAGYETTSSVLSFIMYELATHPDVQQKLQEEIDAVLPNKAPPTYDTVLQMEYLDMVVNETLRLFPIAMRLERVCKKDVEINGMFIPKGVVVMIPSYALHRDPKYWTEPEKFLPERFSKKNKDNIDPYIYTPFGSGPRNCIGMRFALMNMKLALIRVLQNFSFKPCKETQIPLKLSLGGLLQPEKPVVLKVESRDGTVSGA
Chain of CYP2D6 (P10635 whole entry): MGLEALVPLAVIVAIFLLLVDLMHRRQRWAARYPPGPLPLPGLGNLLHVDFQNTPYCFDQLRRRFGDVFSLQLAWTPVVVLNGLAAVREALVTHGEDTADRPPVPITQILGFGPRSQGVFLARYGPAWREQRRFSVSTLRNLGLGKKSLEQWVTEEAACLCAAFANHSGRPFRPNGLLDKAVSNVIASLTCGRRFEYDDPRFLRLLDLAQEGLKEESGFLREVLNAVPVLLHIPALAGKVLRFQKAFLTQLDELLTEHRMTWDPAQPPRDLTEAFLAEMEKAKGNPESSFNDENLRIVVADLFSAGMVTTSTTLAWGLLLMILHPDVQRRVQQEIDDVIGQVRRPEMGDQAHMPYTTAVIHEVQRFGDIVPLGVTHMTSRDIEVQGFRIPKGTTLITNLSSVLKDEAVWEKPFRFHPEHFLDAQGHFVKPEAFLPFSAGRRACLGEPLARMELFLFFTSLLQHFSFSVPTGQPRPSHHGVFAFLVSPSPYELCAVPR

Regarding `COc1ccc2nc3cc(Cl)ccc3c(Nc3ccc(O)c(CN4CCN(CCN(C)C)CC4)c3)c2c1` [Compound A4, 4-((6-Chloro-2-methoxyacridin-9-yl)amino)-2-((4-(2-(dimethylamino)ethyl)piperazin-1-yl)methyl) phenol], the “enzyme activity after pre-incubation of ERCC1-XPF with compound (in words)” value on ERCC1-XPF (3 μM compound, 10% or 5% DMSO) was “time-dependent loss of enzyme activity”. Besides, the “inhibition of ERCC1-XPF endonuclease activity (in words)” value against ERCC1-XPF is “marked capacity to inhibit; also recorded: potent inhibitors”; against ERCC1-XPF (listed as Gen A-4) it was “significantly better inhibitory properties”. Besides, the “quenching of protein fluorescence at 330 nm” value on ERCC1-XPF complex is listed as around 23±2%. Moreover, the “sensitisation to cyclophosphamide, clonogenic survival (in words)” value is “no colonies were observed; also recorded: significantly sensitized the cells to cyclophosphamide; also recorded: no colonies were detected” with HCT116 cells and “significantly sensitized the cells to cyclophosphamide” with HCT116 cells (listed as Gen A4). In addition, the “Hepatocyte stability in vitro CLint (in words)” value in data set [1] is “(medium”. The “LogD (rating)” value in “ADME screening: LogD” is given as “Good”. For the same compound, the logD in the data set “ADME screening: LogD” is listed as 2.86. In addition, the “inhibition of CYP2D6 (in words)” value at CYP2D6 is on record as “weak inhibitor”. Also, at CYP3A4-M, the “inhibition of CYP3A4-M (in words)” value was “weak inhibitor”. Besides, the “Cell permeability (Mean recovery %) (in words)” value in [2] is on record as “Low”. The compound further had an IC50 in [3] of at least 1000 nM. Further, in [4], the “CVP inhibition (5 enzyme) (rating)” value was “Good”.

The record behind these values is US20220306603A1, “TARGETING DNA REPAIR IN TUMOR CELLS VIA INHIBITION OF ERCC1-XPF” (The Governors of the University of Alberta, priority 2019, published 2022).
